Reference: the NIST ThermoML archive (doi:10.1007/s10765-009-0602-6)
“And” between values parts separate entries of the source, which are not always exact repeats. Equal entries are not always repeated. ± gives the expanded uncertainty stated by the source.

Assay: molar heat capacity at constant volume; xn = mol fraction of the nth substance listed
Conditions: x1 = 0.2607

N [ammonia] + O
Conditions	molar heat capacity at constant volume
601.54 K, Fluid (supercritical or subcritical phases), Mass density=301.94 kg/m3, isochoric heat capacity	93.57 ± 3.7 J/K/mol
601.55 K, Fluid (supercritical or subcritical phases), Mass density=291.16 kg/m3, isochoric heat capacity	90.62 ± 3.6 J/K/mol
601.56 K, Fluid (supercritical or subcritical phases), Mass density=188.05 kg/m3, isochoric heat capacity	61.55 ± 2.9 J/K/mol
601.62 K, Fluid (supercritical or subcritical phases), Mass density=285.71 kg/m3, isochoric heat capacity	88.9 ± 3.7 J/K/mol
601.63 K, Fluid (supercritical or subcritical phases), Mass density=299.79 kg/m3, isochoric heat capacity	98.44 ± 3.9 J/K/mol
601.66 K, Fluid (supercritical or subcritical phases), Mass density=294.44 kg/m3, isochoric heat capacity	99.98 ± 4 J/K/mol
601.71 K, Fluid (supercritical or subcritical phases), Mass density=285.71 kg/m3, isochoric heat capacity	87.96 ± 3.6 J/K/mol
601.71 K, Fluid (supercritical or subcritical phases), Mass density=299.79 kg/m3, isochoric heat capacity	95.13 ± 3.8 J/K/mol
601.75 K, Fluid (supercritical or subcritical phases), Mass density=188.05 kg/m3, isochoric heat capacity	64.8 ± 2.6 J/K/mol
601.75 K, Fluid (supercritical or subcritical phases), Mass density=195.99 kg/m3, isochoric heat capacity	103.89 ± 4.7 J/K/mol
601.75 K, Liquid, Isochoric heat capacity	103.89 ± 4.2 J/K/mol
601.79 K, Fluid (supercritical or subcritical phases), Mass density=195.99 kg/m3, isochoric heat capacity	94.8 ± 4.2 J/K/mol
601.82 K, Fluid (supercritical or subcritical phases), Mass density=294.44 kg/m3, isochoric heat capacity	98.74 ± 4 J/K/mol
601.88 K, Fluid (supercritical or subcritical phases), Mass density=376.89 kg/m3, isochoric heat capacity	79.03 ± 3.2 J/K/mol
601.89 K, Fluid (supercritical or subcritical phases), Mass density=195.99 kg/m3, isochoric heat capacity	87.6 ± 4.1 J/K/mol
601.97 K, Fluid (supercritical or subcritical phases), Mass density=297.6 kg/m3, isochoric heat capacity	100.3 ± 4 J/K/mol
601.97 K, Fluid (supercritical or subcritical phases), Mass density=376.89 kg/m3, isochoric heat capacity	76.68 ± 3.1 J/K/mol
601.98 K, Fluid (supercritical or subcritical phases), Mass density=195.99 kg/m3, isochoric heat capacity	77.82 ± 3.2 J/K/mol
602.05 K, Fluid (supercritical or subcritical phases), Mass density=271.09 kg/m3, isochoric heat capacity	106.73 ± 4.3 J/K/mol
602.05 K, Fluid (supercritical or subcritical phases), Mass density=376.89 kg/m3, isochoric heat capacity	80.09 ± 3.2 J/K/mol
602.05 K, Liquid, Isochoric heat capacity	106.73 ± 4.3 J/K/mol
602.08 K, Fluid (supercritical or subcritical phases), Mass density=271.09 kg/m3, isochoric heat capacity	104.24 ± 4.2 J/K/mol
602.09 K, Fluid (supercritical or subcritical phases), Mass density=271.09 kg/m3, isochoric heat capacity	100.44 ± 4.1 J/K/mol
602.12 K, Fluid (supercritical or subcritical phases), Mass density=271.09 kg/m3, isochoric heat capacity	96.3 ± 3.9 J/K/mol
602.13 K, Fluid (supercritical or subcritical phases), Mass density=307.35 kg/m3, isochoric heat capacity	96.93 ± 3.9 J/K/mol
602.14 K, Fluid (supercritical or subcritical phases), Mass density=312.91 kg/m3, isochoric heat capacity	83.15 ± 3.3 J/K/mol
602.22 K, Fluid (supercritical or subcritical phases), Mass density=312.91 kg/m3, isochoric heat capacity	82.81 ± 3.3 J/K/mol
602.23 K, Fluid (supercritical or subcritical phases), Mass density=307.35 kg/m3, isochoric heat capacity	92.38 ± 3.7 J/K/mol
602.24 K, Fluid (supercritical or subcritical phases), Mass density=271.09 kg/m3, isochoric heat capacity	93.92 ± 3.8 J/K/mol
602.26 K, Fluid (supercritical or subcritical phases), Mass density=205.58 kg/m3, isochoric heat capacity	105.31 ± 4.3 J/K/mol
602.26 K, Liquid, Isochoric heat capacity	105.31 ± 4.2 J/K/mol
602.3 K, Fluid (supercritical or subcritical phases), Mass density=312.91 kg/m3, isochoric heat capacity	81.1 ± 3.2 J/K/mol
602.31 K, Fluid (supercritical or subcritical phases), Mass density=205.58 kg/m3, isochoric heat capacity	100.51 ± 4.1 J/K/mol
602.38 K, Fluid (supercritical or subcritical phases), Mass density=271.09 kg/m3, isochoric heat capacity	89.02 ± 3.7 J/K/mol
602.39 K, Fluid (supercritical or subcritical phases), Mass density=205.58 kg/m3, isochoric heat capacity	86.66 ± 3.6 J/K/mol
602.39 K, Fluid (supercritical or subcritical phases), Mass density=312.91 kg/m3, isochoric heat capacity	81.72 ± 3.3 J/K/mol
602.4 K, Fluid (supercritical or subcritical phases), Mass density=307.35 kg/m3, isochoric heat capacity	94.4 ± 3.8 J/K/mol
602.45 K, Liquid, Isochoric heat capacity	105.13 ± 4.2 J/K/mol
602.48 K, Fluid (supercritical or subcritical phases), Mass density=205.58 kg/m3, isochoric heat capacity	75.47 ± 3.1 J/K/mol
602.48 K, Fluid (supercritical or subcritical phases), Mass density=243.98 kg/m3, isochoric heat capacity	100.07 ± 4 J/K/mol
602.48 K, Fluid (supercritical or subcritical phases), Mass density=260.02 kg/m3, isochoric heat capacity	100.07 ± 4 J/K/mol
602.48 K, Fluid (supercritical or subcritical phases), Mass density=307.35 kg/m3, isochoric heat capacity	89.36 ± 3.6 J/K/mol
602.48 K, Fluid (supercritical or subcritical phases), Mass density=312.91 kg/m3, isochoric heat capacity	84.69 ± 3.4 J/K/mol
602.48 K, Fluid (supercritical or subcritical phases), Mass density=342.18 kg/m3, isochoric heat capacity	86.56 ± 3.5 J/K/mol
602.48 K, Fluid (supercritical or subcritical phases), Mass density=376.89 kg/m3, isochoric heat capacity	81.21 ± 3.2 J/K/mol
602.48 K, Fluid (supercritical or subcritical phases), Mass density=456.58 kg/m3, isochoric heat capacity	66.2 ± 2.6 J/K/mol
602.51 K, Fluid (supercritical or subcritical phases), Mass density=271.09 kg/m3, isochoric heat capacity	86.04 ± 3.5 J/K/mol
602.56 K, Fluid (supercritical or subcritical phases), Mass density=205.58 kg/m3, isochoric heat capacity	77.07 ± 3.2 J/K/mol
602.56 K, Fluid (supercritical or subcritical phases), Mass density=243.98 kg/m3, isochoric heat capacity	96.22 ± 3.9 J/K/mol
602.56 K, Fluid (supercritical or subcritical phases), Mass density=260.02 kg/m3, isochoric heat capacity	96.22 ± 3.9 J/K/mol
602.56 K, Fluid (supercritical or subcritical phases), Mass density=307.35 kg/m3, isochoric heat capacity	92.18 ± 3.7 J/K/mol
602.56 K, Fluid (supercritical or subcritical phases), Mass density=342.18 kg/m3, isochoric heat capacity	87.35 ± 3.5 J/K/mol
602.62 K, Fluid (supercritical or subcritical phases), Mass density=195.99 kg/m3, isochoric heat capacity	72.88 ± 2.9 J/K/mol
602.65 K, Fluid (supercritical or subcritical phases), Mass density=243.98 kg/m3, isochoric heat capacity	98.1 ± 3.9 J/K/mol
602.65 K, Fluid (supercritical or subcritical phases), Mass density=260.02 kg/m3, isochoric heat capacity	98.1 ± 3.9 J/K/mol
602.65 K, Fluid (supercritical or subcritical phases), Mass density=376.89 kg/m3, isochoric heat capacity	81.09 ± 3.2 J/K/mol
602.65 K, Fluid (supercritical or subcritical phases), Mass density=456.58 kg/m3, isochoric heat capacity	68.55 ± 2.7 J/K/mol
602.74 K, Fluid (supercritical or subcritical phases), Mass density=205.58 kg/m3, isochoric heat capacity	73.93 ± 3 J/K/mol
602.74 K, Fluid (supercritical or subcritical phases), Mass density=214.83 kg/m3, isochoric heat capacity	106.91 ± 4.4 J/K/mol
602.74 K, Fluid (supercritical or subcritical phases), Mass density=243.98 kg/m3, isochoric heat capacity	94.92 ± 3.8 J/K/mol
602.74 K, Fluid (supercritical or subcritical phases), Mass density=260.02 kg/m3, isochoric heat capacity	94.92 ± 3.8 J/K/mol
602.74 K, Fluid (supercritical or subcritical phases), Mass density=342.18 kg/m3, isochoric heat capacity	87.43 ± 3.5 J/K/mol
602.74 K, Fluid (supercritical or subcritical phases), Mass density=376.89 kg/m3, isochoric heat capacity	79.29 ± 3.2 J/K/mol
602.74 K, Liquid, Isochoric heat capacity	106.91 ± 4.3 J/K/mol
602.82 K, Fluid (supercritical or subcritical phases), Mass density=214.83 kg/m3, isochoric heat capacity	102.73 ± 4.2 J/K/mol
602.82 K, Fluid (supercritical or subcritical phases), Mass density=456.58 kg/m3, isochoric heat capacity	67.55 ± 2.7 J/K/mol
602.85 K, Fluid (supercritical or subcritical phases), Mass density=218.92 kg/m3, isochoric heat capacity	108.5 ± 4.5 J/K/mol
602.85 K, Liquid, Isochoric heat capacity	108.5 ± 4.3 J/K/mol
602.91 K, Fluid (supercritical or subcritical phases), Mass density=214.83 kg/m3, isochoric heat capacity	94.28 ± 4.2 J/K/mol
602.91 K, Fluid (supercritical or subcritical phases), Mass density=218.92 kg/m3, isochoric heat capacity	99.09 ± 4 J/K/mol
602.91 K, Fluid (supercritical or subcritical phases), Mass density=243.98 kg/m3, isochoric heat capacity	106.2 ± 4.3 J/K/mol
602.91 K, Fluid (supercritical or subcritical phases), Mass density=311.19 kg/m3, isochoric heat capacity	90.5 ± 3.6 J/K/mol
602.91 K, Fluid (supercritical or subcritical phases), Mass density=342.18 kg/m3, isochoric heat capacity	82.9 ± 3.3 J/K/mol
602.91 K, Liquid, Isochoric heat capacity	106.2 ± 4.2 J/K/mol
602.96 K, Fluid (supercritical or subcritical phases), Mass density=224.53 kg/m3, isochoric heat capacity	111.03 ± 4.5 J/K/mol
602.96 K, Fluid (supercritical or subcritical phases), Mass density=230.31 kg/m3, isochoric heat capacity	111.35 ± 4.7 J/K/mol
602.96 K, Liquid, Isochoric heat capacity	111.35 ± 4.5 J/K/mol and 111.03 ± 4.4 J/K/mol
602.97 K, Fluid (supercritical or subcritical phases), Mass density=227.54 kg/m3, isochoric heat capacity	112.45 ± 4.7 J/K/mol
602.97 K, Liquid, Isochoric heat capacity	112.45 ± 4.5 J/K/mol
602.99 K, Fluid (supercritical or subcritical phases), Mass density=214.83 kg/m3, isochoric heat capacity	91.33 ± 3.7 J/K/mol
602.99 K, Fluid (supercritical or subcritical phases), Mass density=224.53 kg/m3, isochoric heat capacity	109.57 ± 4.4 J/K/mol
